Test results as given in US12661335B2, “Halogenated xanthene-containing topical anti-gram-positive bacterial ophthalmic composition and method” (Provectus Pharmatech, Inc., priority 2021, dated 2026).
Values after ≈ are worked out from the molar mass of the structure shown. Where two headings read alike, the source gives them in different places.

Legend:
[1] = system: Mycobacterium smagmatis 607 ™; assay: MIC, broth dilution method, dark condition; format: cell-based, Mycobacterium smegmatis; conditions: for MIC: read-out: MIC (μg/mL) against M. smegmatis 607 ™ (wild-type)
[2] = system: M. smegmatis 607 ™ (RB mutant); format: cell-based, Mycobacterium smegmatis; conditions: dark condition; triplicated
[3] = system: biofilms of S. aureus 6508™; assay: Biofilm eradication assay; format: cell-based, Staphylococcus aureus; conditions: linezolid at 600 μg/mL
Description: 62:394-399 (2013)], and was used as a control.
Linezolid was applied as a positive control at very high concentration of 600 μg/mL (>100×MIC for the planktonic cells) in biofilm assays reported by Kurosu et al., Molecules 27:322 (2022).

NC[C@H]1O[C@@H](O[C@H]([C@H]2O[C@@H](n3ccc(=O)[nH]c3=O)[C@H](O)[C@@H]2O)[C@H](NCCCC(=O)NCc2ccc(N3CCC(Oc4ccc(OC(F)(F)F)cc4)CC3)cc2)C(N)=O)[C@H](O)[C@@H]1O [APPB, aminouridyl phenoxypiperidinylbenzyl butanamide]
MIC (μg/mL) against M. smegmatis 607 ™ (wild-type) ([1]; dark condition, triplicated): 0.20 µg/mL (≈ 0.227 µM)
MIC (μg/mL) against M. smegmatis 607 ™ (RB mutant) [2]: 0.20 µg/mL (≈ 0.227 µM)

NCC[C@H](O)C(=O)N[C@@H]1C[C@H](N)[C@@H](O[C@H]2O[C@H](CN)[C@@H](O)[C@H](O)[C@H]2O)[C@H](O)[C@H]1O[C@H]1O[C@H](CO)[C@@H](O)[C@H](N)[C@H]1O [Amikacin]
MIC ([1]; dark condition, triplicated): 0.78 µg/mL (≈ 1.33 µM)

CCc1cc(C(N)=S)ccn1 [Ethionamide (ETH), Ethionamide]
MIC [1]: 12.5 µg/mL (≈ 75.2 µM)

NNC(=O)c1ccncc1 [Isoniazid (INH), Isoniazid]
MIC ([1]; dark condition, triplicated): 1.56 µg/mL (≈ 11.4 µM)

CO[C@H]1/C=C/O[C@@]2(C)Oc3c(C)c(O)c4c(O)c(c(/C=N/N5CCN(C)CC5)c(O)c4c3C2=O)NC(=O)/C(C)=C\C=C\[C@H](C)[C@H](O)[C@@H](C)[C@@H](O)[C@@H](C)[C@H](OC(C)=O)[C@@H]1C [Rifampicin]
MIC [1]: 1.56 µg/mL (≈ 1.9 µM)

CC(=O)NC[C@H]1CN(c2ccc(N3CCOCC3)c(F)c2)C(=O)O1 [linezolid, reference compound]
biofilm eradication efficacy of positive control compared with RB [3]: the same level of efficacy

Capreomycin
MIC (μg/mL) against M. smegmatis 607 ™ (wild-type) ([1]; dark condition, triplicated): 3.13 µg/mL
MIC (μg/mL) against M. smegmatis 607 ™ (RB mutant) [2]: 3.13 µg/mL
